We go through 4 compounds from US20180344725A1, “QUINOLONE CHALCONE COMPOUNDS AND USES THEREOF” (priority 2015, published 2018).

A short description of series [1]: SRB cell viability, isogenic breast cell lines. It is filed as cell-based. The conditions noted are these: human, MCF10AT1 cells (pre-malignant breast cells), 31.25 nM. The procedure: (§1) FIG. 9 illustrates that CTR-17, CTR-20, CTR-21 and CTR-32 preferentially kill the fully malignant […] breast cancer cells over the pre-malignant MCF10AT1 and the non-malignant MCF-10A breast cells. Cells were treated with (A) CTR-17 at doses of 0.10, 0.39, 1.56 or 6.25 μM; (B) CTR-20 at doses of 0.10, 0.39, 1.56 or 6.25 μM; (C) CTR-21 at doses of 7.81, 15.63, 31.25, 62.5, 125 or 250 nM; or (D) CTR-32 at doses of 7.81, 15.63, 31.25, 62.5, 125 or 250 nM for 72 hours. Cell viability was determined using an SRB assay.
(§2) All of the cell lines used were purchased from ATCC and cultured in RPMI-1640 supplemented with 10% fetal bovine serum and antibiotics (100 units penicillin/100 μg/ml streptomycin), unless stated otherwise. 1845B5 and MCF-10A non-cancer breast cell lines were cultured in DME/F12 medium supplemented with 10% fetal bovine serum, antibiotics and growth factors. KB-3-1 is a human epidermal carcinoma cell line and KB-C-2 is its isogenic multidrug-resistant cell line with over-expressing ABCB1/P-gp. […] The human small cell lung carcinoma H69 cell line and its multidrug-resistant MRP1-overexpressing isogenic H69AR cell line were purchased from ATCC. The H69AR cell line was established in the presence of increasing concentrations of Adriamycin (doxorubicin). H69 cells grow as large multi-cell aggregates, making it difficult to accurately count cell numbers. Therefore, the cytotoxicity results obtained from H69AR cells were compared to SW1271, a small cell lung carcinoma cell line without a multidrug-resistant phenotype. The IL-6 dependent bortezomib-resistant ANBL6-BR cell line was further supplemented with 1 ng/ml of IL-6. The MCF10AT1 and MCF10CA1a cell lines are isogenic to the MCF10A cell line, and obtained from Dr. Valerie Weaver at the Center for Bioengineering and Tissue Regeneration, UCSF, CA, USA. MCF10AT1 is a premalignant cell line generated by transforming MCF10A with c-Ha-Ras; and MCF10CA1a was isolated by selecting malignant cells after MCF10AT1 cells were engrafted into mice (Liu & Lin 2004; Marella et al. 2009). The MCF10AT1 and MCF10CA1a cells were cultured in DMEM supplemented with 10% FBS (volume/volume). MDA-MB231TaxR cell line was generated in house by culturing MDA-MB231 cells in gradually increasing doses of paclitaxel over one-year period, and finally maintained at 100 nM paclitaxel. The drug-resistant cells were cultured in the absence of drug for at least one passage before carrying out experiments. All cells were maintained in a humidified incubator at 37° C. (5% CO2/95% air). Cell line authentication was performed using short tandem repeat (STR) profiling.
(§3) For (anti)proliferation assays, 4,000-5,000 cells/well of the 96-well clustered dish were incubated for 16 hours, as described previously (Hu et al., 2008; Skehan et al., 1990). After 16 hours, culture medium was replaced with fresh medium containing different dilutions of test compounds dissolved in DMSO. Some wells were treated with 100 μl of 10% trichloroacetic acid (TCA) as a negative control and sham (medium with dimethyl sulfoxide; DMSO) treated cells were used as a positive control. After 72 hours post-incubation, medium was removed and cells were fixed with 10% TCA at 4° C. for 1 hour. TCA was removed and cells were washed with cold tap water, and plate was air-dried, followed by addition of 50 μl of 0.4% SRB staining solution to each well. After 30 minutes incubation, SRB staining solution was removed. Cells were washed with 1% acetic acid solution, and then washed with tap water to remove unbound staining solution, followed by air-drying. 200 μl of 10 mM (pH10.5) trizma base buffer was added to each well to solubilise macromolecules. SRB stained macromolecules were determined at a 540 nm wavelength using an automated plate reader (Synergy H4 Hybrid Multi-Mode Microplate Reader, BioTek, Winooski, Vt.). Cell growth (inhibition) was calculated by the following formula: […]

For another series, the system named is HeLa cells. The experiment in a line: Cell cycle analysis by flow cytometry. The format is cell-based. The conditions noted are these: 6-72 hours. The procedure: Approximately 1×10^6 cells per plate were seeded and grown overnight. Cells were then treated the next morning with test compounds, and harvested at the scheduled post-treatment times. The cell pellet was collected by centrifugation at 1,100 rpm (Allegra™ X-12 centrifuge, Beckman Coulter, Indianapolis, Ind.), followed by washing the cells twice with PBS, and fixing them with 75% ethanol for 12-24 hours at −20° C. Ethanol was removed by centrifugation at […] (Allegra™ X-12 centrifuge, Beckman Coulter); cells were suspended in PBS and centrifuged again at […] in the same rotor. The PBS was then removed and the cell pellet was resuspended and stained for 1 hour with propidium iodide (PI) staining solution (0.3% nonidet P-40, 100 μg/ml RNase A and 100 μg/ml PI in PBS). The DNA content in the different phases of the cell cycle was analysed by flow cytometry using Beckmann Coulter Cytomics FC500 (Mississauga, ON, Canada). The reversibility of drug effects was determined as follow: HeLa cells treated with a CTR compound for 12 hours were washed twice with 1×PBS, and then released them into pre-warmed drug-free complete medium for scheduled durations. The cells were then examined by confocal microscopy for their morphology or subjected to cell cycle analysis by flow cytometry after cells (DNA) were stained with propidium iodide.
In general terms: Flow cytometry measures light scatter and fluorescence of single cells or particles in a stream.

A short description of a further series: Body weight analysis. It is filed as in vivo. To be noted: ATH490 athymic mice; D0-D30. The procedure:
Animals were monitored for food and water consumption every day, and their body weights and tumor volumes were measured twice per week. Tumor volumes were measured with a digital caliper and were determined by using the following formula: ½ length×width^2. Blood samples were collected via cardiac puncture and processed further for ALT and AST measurements. The animals were then immediately euthanized by carbon dioxide. Tumors and vital organs (spleen, kidney, liver and lung) were collected and fixed in 10% buffered formalin at 4° C. overnight before being processed for paraffin embedding. The paraffin-embedded blocks were then cut into 4-5 μm thick sections. Each section of tumors and organs was stained with hematoxylin and eosin (H&E).
Changes in body weight, hemoglobin (Hb) and the amount and ratio of alanine transaminase (ALT)/aspartate transaminase (AST) were used to measure toxic effects. In addition, vital organs (liver, spleen, kidney and lung) were analyzed by […] after they were harvested, fixed, processed, paraffin-embedded, sectioned, and stained as described above.
. Six-week old ATH40 athymic nude mice were treated as indicated in the legend. “Tax” denotes that paclitaxel was injected by i.v. as described in Table 11. D0-D30 denotes day 0 to day 30 post-drug treatment. The numbers in brackets show drug concentrations in mg/kg body weight. […]

The test system of the next series is MCF10AT1. The series is described as follows: SRB cell viability, isogenic breast cell lines. The format is cell-based. The conditions noted are these: 0.39 μM, 72 hours. The procedure:
as §1, §2, §3

One may read the viability as a read-out of living cells in per cent, often relative to untreated cells. As to `CCOc1ccccc1C(=O)/C=C/c1cc2ccccc2[nH]c1=O` [CTR-32, (E)-3-(3-(2-ethoxyphenyl)-3-oxoprop-1-enyl)quinolin-2(1H)-one], the viability at 72 h, 0.03125 µM in series [1] was 70%. The “concentrations that caused mitotic arrest and, eventually, cell death” value with HeLa cells was > 50 nM.
As to `COc1ccc2[nH]c(=O)c(/C=C/C(=O)c3ccccc3OC)cc2c1` [CTR-20, (E)-6-Methoxy-3-(3-(2-methoxyphenyl)-3-oxoprop-1-enyl) quinolin-2(1H)-one], the “toxic side effect as determined by the changes in body weights” value in “Body weight analysis” is “Neither CTR-17 nor CTR-20 caused any notable toxic side effect”. Also, the Cell survival rate in the series on MCF10AT1 was 20%.
In the case of `COc1ccccc1C(=O)/C=C/c1cc2cccc(OC)c2[nH]c1=O` [CTR-21, (E)-8-methoxy-3-(3-(2-methoxyphenyl)-3-oxoprop-1-enyl) quinolin-2(1H)-one], in series [1], the viability at 72 h, 0.03125 µM was 24%. In addition, the “concentrations that caused mitotic arrest and, eventually, cell death” value in the series with HeLa cells is given as > 60 nM.
Take `COc1ccccc1C(=O)/C=C/c1cc2ccccc2[nH]c1=O` [CTR-17, (E)-3-(3-(2-Methoxyphenyl)-3-oxoprop-1-enyl)quinolin-2(1H)-one]: the “toxic side effect as determined by the changes in body weights” value in the series “Body weight analysis” is given as “Neither CTR-17 nor CTR-20 caused any notable toxic side effect”. The Cell survival rate in the series with MCF10AT1 worked out at 60%.
